Test [1] has as its system NCI-H460. Put plainly: Inhibition of mitochondrial complex I NADH-ubiquinone oxidoreductase in human NCI-H460 cells at 1 uM incubated for 12 hrs by seahorse XF96 metabolic flux analyzer relative to control. It counts as cell-based.
The subject of test [2] is NCI-H460. Kind of test: Inhibition of mitochondrial complex II in human NCI-H460 cells at 1 uM incubated for 12 hrs by seahorse XF96 metabolic flux analyzer relative to control. The format is cell-based.
Test [3] relates to NCI-H460. Kind of test: Inhibition of mitochondrial complex III in human NCI-H460 cells at 1 uM incubated for 12 hrs by seahorse XF96 metabolic flux analyzer relative to control. The format is cell-based.
Test [4] deals with NCI-H460. Kind of test: Inhibition of mitochondrial complex IV in human NCI-H460 cells at 1 uM incubated for 12 hrs by seahorse XF96 metabolic flux analyzer relative to control. It counts as cell-based.
For test [5], the system named is NCI-H460. Put plainly: Inhibition of mitochondrial complex I NADH-ubiquinone oxidoreductase in human NCI-H460 cells assessed as reduction in NAD+/NADH ratio at 1 uM incubated for 12 hrs by WST-8 method relative to control. The format is cell-based.
Test [6] deals with NCI-H460. Kind of test: Antiproliferative activity against human NCI-H460 cells with high-OXPHOS assessed as reduction in cell viability incubated for 5 days by CellTiter 96 cell proliferation assay. The format is functional, cell-based. The following applies: NCI-H460, 120 h.
In test [7] the test system is NCI-H358. Put plainly: Antiproliferative activity against human NCI-H358 cells with low-OXPHOS assessed as reduction in cell viability incubated for 5 days by CellTiter 96 cell proliferation assay. It counts as functional, cell-based. The following applies: NCI-H358, 120 h.
In test [8] the test system is NCI-H460. Kind of test: Inhibition of mitochondrial complex I NADH-ubiquinone oxidoreductase in human NCI-H460 cells assessed as reduction in oxygen consumption rate at 1 uM incubated for 12 hrs in presence of medium supplemented with pyruvate by seahorse XF96 metabolic flux analyzer. It counts as cell-based.
Test [9] deals with NCI-H460. Kind of test: Inhibition of mitochondrial complex I NADH-ubiquinone oxidoreductase in human NCI-H460 cells assessed as reduction in oxygen consumption rate at 1 uM incubated for 12 hrs in presence of medium supplemented with malate by seahorse XF96 metabolic flux analyzer. The format is cell-based.
Test [10] deals with NCI-H460. Put plainly: Inhibition of mitochondrial complex I NADH-ubiquinone oxidoreductase in human NCI-H460 cells assessed as reduction in oxygen consumption rate at 1 uM incubated for 12 hrs in presence of medium supplemented with succinate by seahorse XF96 metabolic flux analyzer. The format is cell-based.
Test [11] has as its system NCI-H460. Put plainly: Inhibition of mitochondrial complex I NADH-ubiquinone oxidoreductase in human NCI-H460 cells assessed as reduction in NAD+/NADH ratio at 1 uM incubated for 12 hrs by WST-8 method. It counts as cell-based.
The subject of test [12] is NCI-H441. Put plainly: Antiproliferative activity against human NCI-H441 cells with high-OXPHOS assessed as reduction in cell viability incubated for 5 days by CellTiter 96 cell proliferation assay. The format is functional, cell-based. As to conditions: NCI-H441, 120 h.
For test [13], the system named is NCI-H460. Put plainly: Inhibition of colony formation in human NCI-H460 cells with high-OXPHOS incubated for 7 days by crystal violet staining based analysis. The following applies: dose 250-1000 nM, time 7.0 day. It counts as functional, cell-based.
The test system of test [14] is NCI-H441. Kind of test: Inhibition of colony formation in human NCI-H441 cells with high-OXPHOS incubated for 7 days by crystal violet staining based analysis. The following applies: dose 250-1000 nM, time 7.0 day. It counts as functional, cell-based.
The test system of test [15] is NCI-H358. Put plainly: Inhibition of colony formation in human NCI-H358 cells low-OXPHOS at 250 to 1000 nM incubated for 7 days by crystal violet staining based analysis. It counts as functional, cell-based. The following applies: dose 250-1000 nM, time 7.0 day.

Active and inactive are the calls of the source. The rule behind the calls is not given here.

As usually defined, the inhibition is the change of the read-out against control, counted positive when it falls. In general, IC50 refers to the point on the concentration scale where inhibition reaches its midpoint.

In the case of `Cc1nnn(Cc2ccc(C(=O)Nc3ccc(C(F)(F)F)cc3)nc2)c1C(=O)N1CCN(Cc2ccc(OCC(F)(F)F)cc2)CC1`, in test [1], the inhibition is 15.7%.

As to `Cc1ccc(CN2CCN(C(=O)c3nnn(Cc4ccc(C(=O)Nc5ccc(C(F)(F)F)cc5)nc4)c3C)CC2)cc1`, the inhibition in [1] turned out to be 38.1%.

Regarding `Cc1c(C(=O)N2CCN(Cc3ccc(OCC(F)(F)F)cc3)CC2)nnn1Cc1ccc(C(=O)NCC(C)C)nc1`, the inhibition in test [1] came to 5.6%.

As for `CCc1c(C(=O)N2CCN(Cc3ccc(OCC(F)(F)F)cc3)CC2)nnn1Cc1ccc(C(=O)Nc2ccc(C(F)(F)F)cc2)nc1`, the inhibition in [1] amounted to 42.6%.

For the molecule `Cc1c(C(=O)N2CCN(Cc3ccc(OCC(F)(F)F)cc3)CC2)nnn1Cc1ccc(C(=O)Nc2ccc(OC(F)(F)F)cc2)nc1`, the inhibition in test [1] was 58.4%; in test [2], 8.8%; in [3], 9%; in test [4], -6.7%; in test [5], 74.2%. Besides, the results for the IC50 in test [6] and in [7] were 6.3 nM and 856 nM, respectively.

As for `Cc1nnn(Cc2ccc(C(=O)Nc3ccc(Br)cc3)nc2)c1C(=O)N1CCN(Cc2ccc(OCC(F)(F)F)cc2)CC1`, the inhibition in test [1] is 7.7%.

`COc1ccc(NC(=O)c2ccc(Cn3nnc(C(=O)N4CCN(Cc5ccc(OCC(F)(F)F)cc5)CC4)c3C)cn2)cc1`: in test [1], the inhibition stood at 49.2%.

As for `O=C(Nc1ccc(C(F)(F)F)cc1)c1ccc(Cn2cc(C(=O)N3CCN(Cc4ccc(OCC(F)(F)F)cc4)CC3)nn2)cn1`, the inhibition in [1] was 52%; in [2], 7.4%; in test [3], 26%; in test [4], -2%; in test [5], 65.7%. The values for the IC50 in [6] and in [7] were 10.6 nM and 588 nM, respectively.

On to `Cc1c(C(=O)N2CCN(Cc3ccc(OCC(F)(F)F)cc3)CC2)nnn1Cc1ccc(C(=O)Nc2ccc(C(C)(C)C)cc2)nc1`, for which, in test [1], the inhibition came out at 45%.

Turning to `Cc1nnn(Cc2ccc(C(=O)Nc3ccc(F)cc3)nc2)c1C(=O)N1CCN(Cc2ccc(OCC(F)(F)F)cc2)CC1`, in [1], the inhibition is 9%.

As to `Cc1c(C(=O)N2CCN(Cc3ccccc3OCC(F)(F)F)CC2)nnn1Cc1ccc(C(=O)Nc2ccc(C(F)(F)F)cc2)nc1`, the inhibition in [1] turned out to be 6.7%.

With `Cc1c(C(=O)N2CCN(Cc3ccc(OCC(F)(F)F)cc3)CC2)nnn1Cc1ccc(C(=O)NC2CCOCC2)nc1`, the inhibition in [1] was 10.5%.

As for `Cc1c(C(=O)N2CCN(Cc3ccc(OCC(F)(F)F)cc3)CC2)nnn1Cc1ccc(C(=O)Nc2ccc3ccccc3c2)nc1`, the inhibition in test [1] was determined as 52.3%; in [2], 7%; in [3], 11%; in test [4] it was 3.9%; in test [5], 57.9%. In addition, the figures for the IC50 in [6] and in test [7] were 25.6 nM and > 1000 nM, respectively.

In the case of `Cc1ccc(NC(=O)c2ccc(Cn3nnc(C(=O)N4CCN(Cc5ccc(OCC(F)(F)F)cc5)CC4)c3C)cn2)cc1`, the inhibition in [1] was 47.9%.

On to `Cc1c(C(=O)N2CCN(C)CC2)nnn1Cc1ccc(C(=O)Nc2ccc(C(F)(F)F)cc2)nc1`, for which the values for the inhibition in test [1] and in [2] were 11.5% and -1.2%, respectively.

Turning to `Cc1c(C(=O)N2CCN(Cc3ccc(OCC(F)(F)F)cc3)CC2)nnn1Cc1ccc(C(=O)Nc2ccc(F)cc2)nc1`, the inhibition in test [1] turned out to be 54.2%; in [2], 9.4%; in test [3], 2.6%; in [4] it was 26.6%; in [5] it was 72.5%. Besides, the IC50 is 11.7 nM in test [6] and > 1000 nM in [7].

For `Cc1c(C(=O)N2CCN(Cc3ccc(OC(F)(F)F)cc3)CC2)nnn1Cc1ccc(C(=O)Nc2ccc(C(F)(F)F)cc2)nc1`, in [1], the inhibition is 50.5%.

Regarding `Cc1c(C(=O)N2CCN(Cc3ccc(OCC(F)(F)F)cc3)CC2)nnn1Cc1ccc(C(=O)Nc2ccc(Cl)cc2)nc1`, the inhibition amounted to 60.1% in test [1]; 13.5% in [2]; 30.3% in test [3]; 26% in test [4]; 72.5% in test [5]. The results for the 50% inhibitory concentration (IC50) in test [6] and in test [7] were 7.6 nM and > 1000 nM, respectively.

As to `Cc1c(C(=O)N2CCN(Cc3ccc(OCC(F)(F)F)cc3)CC2)nnn1Cc1ccc(C(=O)Nc2cccc(C(F)(F)F)c2)nc1`, the inhibition in [1] was 41.2%; in test [2] it was 1.2%; in test [3], 14%; in test [4], -0.1%; in test [5], 39.1%; in test [13], “Dose-Dependent Effect”. Besides, the inhibition entry in [14] was “Dose-Dependent Effect”. The inhibition entry in [8], in [9] and in test [11] was “Active” in each case. The inhibition entry in test [10] and in [15] was “inactive” in each case. In addition, the IC50 in [6] was 257 nM; in [12], 169 nM; in test [7] it was > 10000 nM.

As for `Cc1c(C(=O)N2CCN(Cc3ccc(OCC(F)(F)F)cc3)CC2)nnn1Cc1ccc(C(=O)Nc2ccc(Br)cc2)nc1`, the inhibition was determined as 66% in test [1]; 22.5% in test [2]; 33.7% in test [3]; 20% in test [4]; 62.6% in test [5]. Moreover, the figures for the IC50 in [6] and in test [7] were 5.5 nM and 450 nM, respectively.

Take `CCNC(=O)c1ccc(Cn2nnc(C(=O)N3CCN(Cc4ccc(OCC(F)(F)F)cc4)CC3)c2C)cn1`: the inhibition in test [1] is 36.3%.

On to `O=C(Nc1ccc(C(F)(F)F)cc1)c1ccc(Cn2nnc(C(=O)N3CCN(Cc4ccc(OCC(F)(F)F)cc4)CC3)c2-c2ccccc2)cn1`, for which the inhibition in test [1] amounted to 12.6%.

Turning to `Cc1nnn(Cc2ccc(C(=O)Nc3ccc(OC(F)(F)F)cc3)nc2)c1C(=O)N1CCN(Cc2ccc(OCC(F)(F)F)cc2)CC1`, the inhibition in test [1] was determined as 20.4%.

With `Cc1c(C(=O)N2CCN(Cc3ccccc3)CC2)nnn1Cc1ccc(C(=O)Nc2ccc(C(F)(F)F)cc2)nc1`, in test [1], the inhibition came out at 10.4%.

As to `Cc1c(C(=O)N2CCN(Cc3ccc(C(C)C)cc3)CC2)nnn1Cc1ccc(C(=O)Nc2ccc(C(F)(F)F)cc2)nc1`, the inhibition in test [1] is 36.7%.

Take `CCN1CCN(C(=O)c2nnn(Cc3ccc(C(=O)Nc4ccc(C(F)(F)F)cc4)nc3)c2C)CC1`: in test [1], the inhibition is -4.1%.

Turning to `Cc1c(C(=O)N2CCN(Cc3ccc(C(C)(C)C)cc3)CC2)nnn1Cc1ccc(C(=O)Nc2ccc(C(F)(F)F)cc2)nc1`, the inhibition is 50.5% in test [1]; -0.9% in test [2]; 17.8% in test [3]; 12.2% in test [4]; 73.2% in test [5]. The IC50 in test [6] is 7.8 nM; in test [7], > 1000 nM.

On to `Cc1c(C(=O)N2CCN(Cc3cccc(OCC(F)(F)F)c3)CC2)nnn1Cc1ccc(C(=O)Nc2ccc(C(F)(F)F)cc2)nc1`, for which, in test [1], the inhibition worked out at 49.9%.

Regarding `Cc1c(C(=O)N2CCN(S(C)(=O)=O)CC2)nnn1Cc1ccc(C(=O)Nc2ccc(C(F)(F)F)cc2)nc1`, the inhibition in test [1] stood at 20.4%.

Regarding `Cc1c(C(=O)N2CCN(Cc3ccc(OCC(F)(F)F)cc3)CC2)nnn1Cc1ccc(C(=O)Nc2ccccc2C(F)(F)F)nc1`, the inhibition in [1] came out at 36.3%.

With `Cc1c(C(=O)N2CCN(Cc3ccc(Cl)cc3)CC2)nnn1Cc1ccc(C(=O)Nc2ccc(C(F)(F)F)cc2)nc1`, the inhibition is 20.4% in [1], 6.8% in test [2], 3.5% in test [3] and 8.9% in [4].

For the molecule `O=C(Nc1ccc(C(F)(F)F)cc1)c1ccc(Cn2nnc(C(=O)N3CCN(Cc4ccc(OCC(F)(F)F)cc4)CC3)c2C(F)(F)F)cn1`, the inhibition was determined as 59.3% in test [1]; 4.7% in [2]; 12.1% in test [3]; 1.6% in [4]; 85.1% in test [5]. For the same molecule, the IC50 worked out at 3.8 nM in [6] and 605 nM in test [7].

In the case of `Cc1c(C(=O)N2CCN(C(=O)c3ccc(OC(F)(F)F)cc3)CC2)nnn1Cc1ccc(C(=O)Nc2ccc(C(F)(F)F)cc2)nc1`, the inhibition in [1] worked out at 43.8%.

For the origin of these results see ChEMBL document CHEMBL5380875, “Discovery of a Potent and Oral Available Complex I OXPHOS Inhibitor That Abrogates Tumor Growth and Circumvents MEKi Resistance” (J Med Chem, 2023).
